Patent publication US20230118795A1, “ARYL OR HETEROARYL PYRIDONE OR PYRIMIDINE DERIVATIVE, PREPARATION METHOD AND USE THEREOF” (SUZHOU ZELGEN BIOPHARMACEUTICALS CO., LTD., priority 2020, published 2023)
pIC50: −log10 of the molar value. Like-named read-outs stand apart in the source and are kept apart here.

Tests used:
[1] = tested on: NCI-H358 (KRAS^G12C mutation) cell; assay: Cell assay of antiproliferative activity against NCI-H358 cell (Celltiter-Glo, 5 days); format: cell-based; conditions: 5 days incubation
Procedure, shortened: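 KRAS G12C NCI-H358 cells were plated in 384-well format and incubated overnight before compound addition. Compounds were added as a 10-point series (diluted from 50 μM to 0.003 μM before transfer) and incubated 5 days. Viability by CellTiter-Glo luminescence, with IC50 from curve fitting.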

[2] = Pharmacokinetic test in mice, plasma concentration by LC/MS/MS; format: in vivo; conditions: male ICR mice, 30 mg/kg by gavage, CMC/TW80 carrier, n = 4, mean
Method: Evaluation of Pharmacokinetic Tests in Mice
Male ICR mice with a body weight of about 20-30 g, were given 30 mg/kg of solutions of compounds of Examples 10B, 16B, 18A, 63B and 78B of the present invention [CMC/TW80 as carrier] by gavage after fasting overnight. Blood samples were collected at 0.5, 1.0, 2.0, 4.0, 6.0, 8.0, 12 and 24 hours after the compound was administrated, and the concentrations of the compound in plasma were determined by LC/MS/MS.

[3] = tested on: NCI-H358 tumor cells; assay: H358 CDX tumor model, anti-tumor activity; format: in vivo; conditions: NCI-H358 xenograft in nude mice; for efficacy compared with control compound AMG 510 (in words): 20 mg/Kg; for TV (mm^3) Day 0: Day 0 (at grouping), 20 mg/Kg intragastric every day; for % TGI / % Tumor Growth / TV (mm^3) Day 20: Day 20, 20 mg/Kg intragastric every day
Method: 100 uL suspension containing 5×10^6 NCI-H358 tumor cells was subcutaneously injected into the right posterior back of nude mice. The health of the mice was monitored daily. Measurements were started when the tumor grew palpable. The tumor volume calculation formula was adopted: 0.5×L×W2, where L and W represented tumor length and width, respectively. The tumor grew to about 200 mm^3, the mice were randomly divided into groups. Mice were intragastrically administrated the corresponding dose (20 mg/Kg) of the compound's solution every day, and their general status was monitored at the same time. The tumor was measured 2 times a week, and the weight was measured twice a week.

pIC50 [1]	AUC0-t [2] [ng·h/mL]	Cmax [2] [ng/mL]	AUC0-t ([2]; mouse, po, read-out: AUC0-t) [ng·h/mL]	Cmax ([2]; mouse, po, read-out: Cmax) [ng/mL]	Structure (SMILES)	efficacy compared with control compound AMG 510 (in words) [3]	TV (mm^3) Day 0 [3] [mm^3]	% TGI [3] [%]	% Tumor Growth [3] [%]	TV (mm^3) Day 20 [3] [mm^3]
8.30	1548	1570	–	–	C=CC(=O)N1CCN(c2nc(=O)n(-c3c(C(C)C)cccc3S(C)(=O)=O)c3nc(-c4c(O)cccc4F)c(F)cc23)[C@@H](C)C1 (single isomer, unassigned) [Example 10B]	–	–	–	–	–
8.15	46.1	26.1	–	–	C=CC(=O)N1CCN(c2nc(=O)n(-c3c(C(C)C)ccnc3S(C)(=O)=O)c3nc(-c4c(O)cccc4F)c(F)cc23)[C@@H](C)C1 (single isomer, unassigned) [Example 16B]	–	–	–	–	–
7.89	–	–	219	336	C=CC(=O)N1CCN(c2nc(=O)n(-c3c(S(C)(=O)=O)ccnc3C(C)C)c3nc(-c4c(O)cccc4F)c(F)cc23)[C@@H](C)C1 (single isomer, unassigned) [Example 18A]	–	–	–	–	–
8.10	1540	796	–	–	C=CC(=O)N1C[C@H](C)N(c2nc(=O)n(-c3c(C4CCC4)cccc3S(C)(=O)=O)c3nc(-c4c(O)cccc4F)c(F)cc23)C[C@H]1C (single isomer, unassigned) [Example 63B]	better efficacy than the control compound AMG 510	196	97.8	19	263
8.15	688	722	–	–	C=CC(=O)N1C[C@H](C)N(c2nc(=O)n(-c3c(C(C)C)cccc3S(C)(=O)=O)c3nc(-c4c(O)cccc4F)c(F)cc23)C[C@H]1C (single isomer, unassigned) [Example 78B]	better efficacy than the control compound AMG 510	196	98.5	13	231
–	–	–	–	–	C=CC(=O)N1CCN(c2nc(=O)n(-c3c(C)ccnc3C(C)C)c3nc(-c4c(O)cccc4F)c(F)cc23)[C@@H](C)C1 [AMG510, reference compound]	–	196	86.8	117	437
< 5.00	–	–	–	–	C=CC(=O)N1CCN(c2nc(=O)n(-c3cccnc3S(C)(=O)=O)c3nc(-c4c(O)cccc4F)c(F)cc23)CC1CC#N (stereo not drawn) [Example 92, 2-(1-acryloyl-4-(6-fluoro-7-(2-fluoro-6-hydroxyphenyl)-1-(2-(methylsulfonyl)pyridin-3-yl)-2-oxo-1,2-dihydropyridino [2,3-d]pyrimidin-4-yl)piperazin-2-yl) acetonitrile]	–	–	–	–	–
